In the assay the target is T1, Integrin alpha-L (Mus musculus, UniProt P24063).
T1 sequence (P24063 whole entry): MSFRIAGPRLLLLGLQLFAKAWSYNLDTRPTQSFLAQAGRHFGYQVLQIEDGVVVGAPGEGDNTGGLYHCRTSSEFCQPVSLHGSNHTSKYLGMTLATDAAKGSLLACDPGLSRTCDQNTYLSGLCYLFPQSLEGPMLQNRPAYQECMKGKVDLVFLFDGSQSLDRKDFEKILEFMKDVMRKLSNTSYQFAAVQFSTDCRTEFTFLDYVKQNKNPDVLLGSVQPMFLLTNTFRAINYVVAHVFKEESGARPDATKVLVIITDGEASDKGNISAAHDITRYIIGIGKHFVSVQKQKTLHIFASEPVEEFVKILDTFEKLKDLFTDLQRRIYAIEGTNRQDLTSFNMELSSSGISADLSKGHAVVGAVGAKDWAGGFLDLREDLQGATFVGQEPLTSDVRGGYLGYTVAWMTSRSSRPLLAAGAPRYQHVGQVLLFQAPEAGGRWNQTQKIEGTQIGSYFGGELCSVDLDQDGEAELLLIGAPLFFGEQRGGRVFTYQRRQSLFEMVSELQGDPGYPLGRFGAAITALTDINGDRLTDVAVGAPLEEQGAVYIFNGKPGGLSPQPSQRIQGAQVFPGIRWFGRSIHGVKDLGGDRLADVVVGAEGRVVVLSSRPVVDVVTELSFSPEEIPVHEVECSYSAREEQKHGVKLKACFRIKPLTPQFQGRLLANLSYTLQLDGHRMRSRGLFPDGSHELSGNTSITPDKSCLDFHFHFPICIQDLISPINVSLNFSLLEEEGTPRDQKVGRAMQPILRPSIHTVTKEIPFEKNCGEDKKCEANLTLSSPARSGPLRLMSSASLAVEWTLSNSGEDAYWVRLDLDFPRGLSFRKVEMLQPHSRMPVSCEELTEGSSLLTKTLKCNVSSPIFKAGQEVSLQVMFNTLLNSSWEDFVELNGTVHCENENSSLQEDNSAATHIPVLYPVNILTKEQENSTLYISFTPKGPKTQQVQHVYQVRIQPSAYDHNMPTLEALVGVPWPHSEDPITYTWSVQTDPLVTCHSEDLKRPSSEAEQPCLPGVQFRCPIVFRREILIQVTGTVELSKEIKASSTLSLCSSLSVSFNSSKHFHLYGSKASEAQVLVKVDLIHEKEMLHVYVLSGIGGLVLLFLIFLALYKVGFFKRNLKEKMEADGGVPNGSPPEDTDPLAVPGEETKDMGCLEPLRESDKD
Nature of the assay: modulators of CD8 T cell-vesicle binding, dose response, powder samples, mouse 2C CD8+ cells (AID 504565).

For orientation: EC50 means the concentration needed to bring the measured effect to its halfway point. Lower therefore signals an effect from little substance. In the case of `O=C(c1ccc(-n2c(O)c3c(c2O)CC(Cl)=CC3)cc1)N1CCCCC1` [5-chloro-2-[4-[oxo(1-piperidinyl)methyl]phenyl]-3a,4,7,7a-tetrahydroisoindole-1,3-dione], the half-maximal effective concentration (EC50) was found to be 9.02 µM.

For the origin of these results see BindingDB's records for doi:10.7270/Q2XW4H88 (Nmmlsc, 2011).
